These results are taken from publication PMC7479175, “Selection of Potent Inhibitors of Soluble Epoxide Hydrolase for Usage in Veterinary Medicine” (Frontiers in Veterinary Science, 2020).

In one data set the target is Cat sEH (Felis catus, UniProt A0ABI7ZL20). The data set is described as follows: Primary screen (end point) of the sEH inhibitor library, PHOME substrate. Format: biochemical. The settings on record: read-out: Cat sEH Inhibition (%) P. On the procedure: (§1) Primary screening of the library was performed with an inhibitor concentration of 100 nM using PHOME as substrate ([22]). […] The plates were then mixed and incubated at 30°C for 5 min. Across each plate, 30 μL of the working substrate solution (270 μL of 5 mM PHOME solution in DMSO diluted with 3,680 μL of buffer) were added quickly to yield [S]final: 50 μM. Each plate was further incubated at room temperature (horse sEH: 60 min; cat sEH: 45 min; dog sEH: 30 min).
Sequence of Cat sEH (A0ABI7ZL20 entry or part of it): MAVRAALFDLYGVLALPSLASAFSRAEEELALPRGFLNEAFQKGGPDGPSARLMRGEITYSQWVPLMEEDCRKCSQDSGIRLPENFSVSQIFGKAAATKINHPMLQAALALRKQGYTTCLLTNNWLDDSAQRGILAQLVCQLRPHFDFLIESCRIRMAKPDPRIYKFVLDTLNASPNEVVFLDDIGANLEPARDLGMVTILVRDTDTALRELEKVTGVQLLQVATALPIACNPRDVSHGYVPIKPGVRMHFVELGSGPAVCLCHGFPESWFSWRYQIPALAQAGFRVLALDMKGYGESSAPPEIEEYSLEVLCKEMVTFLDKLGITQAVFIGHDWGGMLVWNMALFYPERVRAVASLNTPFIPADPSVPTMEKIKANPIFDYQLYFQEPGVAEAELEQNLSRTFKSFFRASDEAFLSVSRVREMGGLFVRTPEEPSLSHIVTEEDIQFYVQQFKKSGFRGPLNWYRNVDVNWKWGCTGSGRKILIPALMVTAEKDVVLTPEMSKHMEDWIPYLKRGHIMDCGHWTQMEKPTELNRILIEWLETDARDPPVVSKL

Data set [1] deals with T1, Dog sEH (Canis lupus familiaris, UniProt A0A8I3NJL8).
T1 sequence (A0A8I3NJL8 1-556): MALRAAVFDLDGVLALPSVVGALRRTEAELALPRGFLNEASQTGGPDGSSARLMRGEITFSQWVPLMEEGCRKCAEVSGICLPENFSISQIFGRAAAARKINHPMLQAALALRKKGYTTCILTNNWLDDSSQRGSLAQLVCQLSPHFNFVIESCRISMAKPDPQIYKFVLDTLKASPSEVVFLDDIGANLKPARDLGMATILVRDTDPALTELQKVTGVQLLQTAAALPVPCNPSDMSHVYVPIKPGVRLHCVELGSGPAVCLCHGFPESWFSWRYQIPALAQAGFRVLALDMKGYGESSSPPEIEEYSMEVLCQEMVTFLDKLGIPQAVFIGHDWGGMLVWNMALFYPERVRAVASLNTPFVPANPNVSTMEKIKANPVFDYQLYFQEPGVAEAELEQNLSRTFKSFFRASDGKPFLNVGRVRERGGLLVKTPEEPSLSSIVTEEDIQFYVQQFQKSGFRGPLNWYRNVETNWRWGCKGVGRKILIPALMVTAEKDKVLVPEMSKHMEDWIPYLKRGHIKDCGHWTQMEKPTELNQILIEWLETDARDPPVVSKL
The description is as above. Type of data set: biochemical. To be noted: [I] = 100 nM, primary end-point screening; read-out: Dog sEH Inhibition (%) P. On the procedure:
as §1

For a further data set, the target named is Horse sEH (Equus caballus, UniProt F7C407). The data set is described as above. Format: biochemical. To be noted: [I] = 100 nM, primary end-point screening; read-out: Horse sEH Inhibition (%) P. On the procedure:
as §1

The target of data set [2] is T1, Dog sEH. The data set is described as follows: Secondary screen (kinetic mode), PHOME substrate. Type of data set: biochemical. The settings on record: [I] = 100 nM, secondary kinetic mode screening; read-out: Dog sEH Inhibition (%) S.
Data set [3] addresses sEH activity from liver cytosol of Cow (Bos taurus, UniProt Q17QK4). As to the kind of experiment: sEH inhibition potency (IC50), radioactive assay with [3H]t-DPPO, liver cytosol. Type of data set: biochemical. The settings on record: [3H]t-DPPO ([S]final = 5 μM) as substrate.
Data set [4] concerns the target T2, sEH activity from liver cytosol of Mouse (Mus musculus, UniProt P34914).
T2 construct: The radioactive fluorescent assay was used with the liver crude extracts; from tissue; host or cells: mouse liver cytosol (100,000 g supernatant)
T2 sequence (P34914 1-554): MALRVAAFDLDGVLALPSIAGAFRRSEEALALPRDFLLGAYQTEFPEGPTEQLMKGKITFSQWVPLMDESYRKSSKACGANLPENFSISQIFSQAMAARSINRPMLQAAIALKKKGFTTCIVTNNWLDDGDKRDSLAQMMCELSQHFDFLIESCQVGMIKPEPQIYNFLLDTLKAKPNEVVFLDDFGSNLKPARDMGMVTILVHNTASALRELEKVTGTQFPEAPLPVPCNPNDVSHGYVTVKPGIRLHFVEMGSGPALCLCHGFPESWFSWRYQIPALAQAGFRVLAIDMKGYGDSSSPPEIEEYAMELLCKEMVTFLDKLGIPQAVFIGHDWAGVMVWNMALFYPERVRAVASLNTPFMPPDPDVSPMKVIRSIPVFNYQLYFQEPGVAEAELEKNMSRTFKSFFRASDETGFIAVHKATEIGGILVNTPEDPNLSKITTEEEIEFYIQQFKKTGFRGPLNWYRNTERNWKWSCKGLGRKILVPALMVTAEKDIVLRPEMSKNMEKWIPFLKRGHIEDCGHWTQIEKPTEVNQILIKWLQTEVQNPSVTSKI
The data set is described as above. Type of data set: biochemical. To be noted: [3H]t-DPPO ([S]final = 5 μM) as substrate.

Data set [5] relates to horses with chronic laminitis. The settings on record: 0.1–1 mg/kg i.v., ref [11]–[13]; cited from earlier work.

Sequence of Horse sEH (F7C407 entry or part of it): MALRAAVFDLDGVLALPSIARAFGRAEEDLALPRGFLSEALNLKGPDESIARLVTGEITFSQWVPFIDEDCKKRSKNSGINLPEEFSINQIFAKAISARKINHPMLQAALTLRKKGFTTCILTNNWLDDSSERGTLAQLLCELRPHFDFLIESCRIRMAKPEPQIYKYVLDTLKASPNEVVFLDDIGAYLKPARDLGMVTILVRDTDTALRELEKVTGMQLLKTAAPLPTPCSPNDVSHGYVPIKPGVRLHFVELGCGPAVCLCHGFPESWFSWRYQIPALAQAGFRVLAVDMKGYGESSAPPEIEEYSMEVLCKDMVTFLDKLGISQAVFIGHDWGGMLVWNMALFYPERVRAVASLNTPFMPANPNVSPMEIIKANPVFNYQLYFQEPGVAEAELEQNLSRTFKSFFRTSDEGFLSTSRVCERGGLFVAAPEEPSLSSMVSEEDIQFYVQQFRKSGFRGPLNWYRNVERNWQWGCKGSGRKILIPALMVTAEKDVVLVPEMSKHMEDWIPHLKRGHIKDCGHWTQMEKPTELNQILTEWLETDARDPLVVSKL
Sequence of sEH activity from liver cytosol of Cow (Q17QK4 entry or part of it): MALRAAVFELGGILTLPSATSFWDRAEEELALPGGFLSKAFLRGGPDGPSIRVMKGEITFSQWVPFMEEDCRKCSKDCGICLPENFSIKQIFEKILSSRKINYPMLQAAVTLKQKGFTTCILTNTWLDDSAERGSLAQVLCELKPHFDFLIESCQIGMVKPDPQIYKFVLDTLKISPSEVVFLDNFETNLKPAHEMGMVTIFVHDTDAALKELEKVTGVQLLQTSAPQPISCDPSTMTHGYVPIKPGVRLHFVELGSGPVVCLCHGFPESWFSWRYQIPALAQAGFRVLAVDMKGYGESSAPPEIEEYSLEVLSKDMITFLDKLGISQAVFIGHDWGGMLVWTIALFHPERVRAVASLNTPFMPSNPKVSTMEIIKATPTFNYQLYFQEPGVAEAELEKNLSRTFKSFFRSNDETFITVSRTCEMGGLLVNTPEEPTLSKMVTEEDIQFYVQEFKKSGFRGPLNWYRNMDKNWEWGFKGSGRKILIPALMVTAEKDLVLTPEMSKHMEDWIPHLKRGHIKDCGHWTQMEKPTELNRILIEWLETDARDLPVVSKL

Broadly, the inhibition is the change of the read-out against control, counted positive when it falls. One may read the IC50 as the point on the concentration scale where inhibition reaches its midpoint. In the case of `N#CNC(=O)CCCCCCCCCCCNC(=O)NC12CC3CC(CC(C3)C1)C2` [1,845], the inhibition at 0.1 µM at Cat sEH stood at 101%; at Dog sEH [1] it was 95%; on Horse sEH it was 100%; on Dog sEH [2] it was 83%. Besides, the results for the IC50 in data set [3] and in data set [4] were 11 nM and 17 nM, respectively.

On to `O=C(Nc1ccc(OC(F)(F)F)cc1)N[C@H]1CC[C@H](Oc2ccc(C(=O)O)cc2)CC1` [1,728, trans-4-{4-[3-(4-trifluoromethoxy-phenyl)-ureido]-cyclohexyloxy}-benzoic acid], for which, in data set [5], the adverse effects entry was “without observed adverse effects”; the reduction in pain result was “significant and rapid reduction in pain”.

For the compound `O=C(NCCCCOc1ccc(F)cc1)NC12CC3CC(CC(C3)C1)C2` [1,707], the inhibition at 0.1 µM was 94% on Cat sEH, below 90% on Dog sEH [1], 101% on Horse sEH and 83% on Dog sEH [2]. Moreover, the IC50 in data set [3] stood at 7 nM; in data set [4], 10 nM.
